Patent publication EP0687253B1, “4-AMINOPYRIDINES, PROCESS FOR PREPARING THE SAME AND MEDICAMENTS CONTAINING THE SAME” (BOEHRINGER MANNHEIM GMBH, priority 1993, dated 1994)
Values belong to the compound of their own block, whether it stands above or below them.

Key:
Pferdethrombin = assay: Thrombin time (clotting of human citrate plasma with thrombin reagent, ball coagulometer); format: biochemical, Pferd; conditions: thrombin time as difference to control (control ca. 24 Sek.), test stopped at 5 Min.; for TT2.5: 2.5 µM in final volume; for TT25: 25 µM in final volume; for TT250: 250 µM in final volume
Protocol: Ein in der klinischen Gerinnungsdiagnostik gebräuchlicher Test ist die Thrombinzeit. Dieser Parameter erfaßt die Thrombinwirkung auf Fibrinogen und die Gerinnselbildung. Inhibitoren von Thrombin bewirken eine Verlängerung der Thrombinzeit.
Zur Plasmagewinnung wurden 9 Teile frisches Blut gesunder Spender mit einem Teil Natriumcitratlösung (0.11 Mol/l) gemischt und bei ca. 3000 U/min 10 Min. bei Raumtemperatur zentrifugiert. Das Plasma wurde abpipettiert und kann bei Raumtemperatur ca. 8 h aufbewahrt werden.
200 µl Citratplasma wurden in einem Kugelkoagulometer (KC 10 der Firma Amelung) 2 Min. bei 37 °C inkubiert, Zu 190 µl vortemperiertem Thrombin-Reagenz (Boehringer Mannheim GmbH; enthält ca. 3 U/ml Pferdethrombin und 0.0125 M Ca^++) gab man 10 µl Dimethylsulfoxid (DMSO) oder eine Lösung der Wirksubstanz in DMSO. Mit Zugabe dieser 200 µl Lösung zum Plasma wurde eine Stoppuhr gestartet und der Zeitpunkt bis zum Eintritt der Gerinnung bestimmt. Die Thrombinzeit betrug bei den Kontrollmessungen ca. 24 Sek. und wurde durch die Wirksubstanzen deutlich verlängert. War die Thrombinzeit in Gegenwart einer Beispielverbindung länger als 5 Min.. wurde der Versuch abgebrochen.
In der folgenden Tabelle sind die gemessenen Thrombinzeiten in Sekunden als Differenz zur Kontrolle angegeben. Die Konzentrationen der Wirksubstanzen betrugen im Endvolumen 250 µM (TT250), 25 µM (TT25) und 2.5 µM (TT2.5).

humanem α-Thrombin = molecular target: T1, humanem α-Thrombin (Homo sapiens, UniProt P00734); assay: Thrombin inhibition, kinetic measurement with chromogenic substrate S-2238; format: biochemical; conditions: 0,1 M phosphate buffer, pH = 7.5, 25 °C, substrate H-(D)-Phe-Pro-Arg-pNA (S-2238)
T1 construct: humanem α-Thrombin (Sigma, spezifische Aktivität = 2150 NIH-units/mg); purchased Sigma
Protocol: Die kinetischen Messungen wurden in 0,1 M Phosphatpuffer, der 0.2 M Kochsalz und 0.5 % Polyethylenglycol 6000 enthielt. bei einem pH = 7.5 und 25 °C mit dem Substrat H-(D)-Phe-Pro-Arg-pNA (S-2238 Kabi) und humanem α-Thrombin (Sigma, spezifische Aktivität = 2150 NIH-units/mg) in Polystyrol-Halbmikroküvetten in einem Gesamtvolumen von 1 ml durchgeführt.
In einem Vorversuch wurde mit jeder Wirksubstanz bestimmt, ob sie Thrombin schnell oder langsam inhibiert. Dazu wurde die Reaktion einmal durch Zugabe von 0.03 NIH-units Thrombin zu einer 100 µM-Lösung des Substrats und des Wirkstoffs gestartet. In einem zweiten Versuch wurde Substrat zu einer 5 Min. inkubierten Lösung des Thrombins und des Wirkstoffs gegeben. Die Zunahme der Konzentration von p-Nitroanilin mit der Zeit wurde spektroskopisch (UV-VIS-Spektrophotometer Lambda-2 der Firma Perkin-Elmer) bei 405 nm 12 Min. verfolgt. Da die bei beiden Versuchen erhaltenen Messkurven linear und parallel waren, handelt es sich bei den Wirkstoffen der folgenden Tabelle um schnelle Thrombin-Inhibitoren. Die Inhibitionskonstanten Ki wurden dann wie folgt bestimmt. Das Substrat wurde in den Konzentrationen 100 µM, 50 µM. 30 µM, 20 µM eingesetzt und bei jeder Substratkonzentration eine Messung ohne Inhibitor und drei Messungen in Gegenwart unterschiedlicher Konzentrationen der in der folgenden Tabelle aufgeführten Inhibitoren durchgeführt. Die Reaktionen wurden durch Zugabe von Thrombin gestartet. Die Zunahme der Extinktion bei 405 nm durch das entstehende p-Nitroanilin über einen Zeitraum von 12 Min. verfolgt. Im Abstand von 20 Sek. wurden Meßpunkte (Zeit vs. Extinktion) auf einen PC übertragen. Aus den Daten wurden die Geschwindigkeiten Vo (Extinktionsänderung pro Sek.: Messungen ohne Inhibitor) und Vi (Messungen mit Inhibitor) durch lineare Regression bestimmt. Benutzt wurde nur der Teil jeder Messung. bei dem sich die Substratkonzentration um weniger als 15 % vermindert hatte. Aus einer Meßreihe (konstante Inhibitorkonzentration, variable Substratkonzentrationen) bestimmte man Km' und Vmax durch nichtlinearen Fit auf die Gleichung V =(Vmax ∗ [S])/([S] + Km ') [formula]
Aus den gesamten Meßreihen berechnete man schließlich Ki durch nichtlinearen Fit auf die Gleichung V =(Vmax ∗ [S])/(Km ∗ (1 + […] ) + [S]) [formula] Die Michaeliskonstante Km betrug in allen Messungen 3.8 ± 2 µM. Die Inhibitionskonstanten Ki der Wirksubstanzen sind in der folgenden Tabelle in der Einheit µM angegeben.

Ki (humanem α-Thrombin): 300 nM
SMILES: O=S(=O)(Nc1cccc(OCCNc2ccncc2)c1)c1cccc2ccccc12 [Beispiel 2, N-{3-[2-(Pyridin-4-ylamino)-ethoxy]-phenyl}-1-naphthalin-sulfonamid]
TT2.5 (Pferdethrombin): 6 Sekunden
TT25 (Pferdethrombin): 40 Sekunden
TT250 (Pferdethrombin): 150 Sekunden

Ki (humanem α-Thrombin): 1000 nM
SMILES: O=S(=O)(Nc1cccc(OCCNc2ccncc2)c1)C1CCCCC1 [Beispiel 8, N-{3-[2-(Pyridin-4-ylamino)-ethoxy]-phenyl}-cyclohexan-sulfonamid]
TT2.5 (Pferdethrombin): 13 Sekunden
TT25 (Pferdethrombin): 58 Sekunden
TT250 (Pferdethrombin): 288 Sekunden

SMILES: CC(CNc1ccncc1)Oc1cccc(NS(=O)(=O)c2ccccc2)c1 (centres unmarked) [Beispiel 10, N-{3-[1-Methyl-2-(pyridin-4-ylamino)-ethoxy]-phenyl}-benzolsulfonamid]
TT2.5 (Pferdethrombin): 7 Sekunden
TT25 (Pferdethrombin): 43 Sekunden
TT250 (Pferdethrombin): 157 Sekunden
Ki (humanem α-Thrombin): 3000 nM

SMILES: O=S(=O)(c1ccccc1)N(Cc1ccccc1)c1cccc(OCCNc2ccncc2)c1 [Beispiel 15, N-Benzyl-N-{3-[2-(pyridin-4-ylamino)-ethoxy]-phenyl}-benzolsulfonamid]
TT2.5 (Pferdethrombin): 15 Sekunden
TT25 (Pferdethrombin): 144 Sekunden
TT250 (Pferdethrombin): 270 Sekunden
Ki (humanem α-Thrombin): 130 nM

Ki (humanem α-Thrombin): 6000 nM
SMILES: COc1ccc(OCCNc2ccncc2)cc1NS(=O)(=O)c1ccccc1 [Beispiel 59, N-{2-Methoxy-5-[2-(pyridin-4-ylamino)-ethoxy]-phenyl}-benzolsulfonamid]
TT2.5 (Pferdethrombin): 0 Sekunden
TT25 (Pferdethrombin): 8 Sekunden
TT250 (Pferdethrombin): 53 Sekunden

Ki (humanem α-Thrombin): 600 nM
SMILES: Cc1ccc(OCCNc2ccncc2)cc1NS(=O)(=O)c1ccccc1 [Beispiel 60, N-{2-Methyl-5-[2-(pyridin-4-ylamino)-ethoxy]-phenyl}-benzolsulfonamid]
TT2.5 (Pferdethrombin): 13 Sekunden
TT25 (Pferdethrombin): 62 Sekunden
TT250 (Pferdethrombin): 137 Sekunden

SMILES: Cc1cc(OCCN(C)c2ccncc2)cc(OS(=O)(=O)c2ccccc2Cl)c1 [Beispiel 72, 2-Chlorbenzolsulfonsäure-5-methyl-3-[2-(N-methyl-pyridin-4-ylamino)-ethoxy]-phenylester]
TT2.5 (Pferdethrombin): 159 Sekunden
TT25 (Pferdethrombin): 300 Sekunden
TT250 (Pferdethrombin): 300 Sekunden
Ki (humanem α-Thrombin): 24 nM

Ki (humanem α-Thrombin): 5000 nM
SMILES: O=S(=O)(Nc1cc(NCCNc2ccncc2)cc(C(F)(F)F)c1)c1ccccc1 [Beispiel 79, N-{3-[2-(Pyridin-4-ylamino)-ethylamino]-5-trifluormethyl-phenyl}-benzolsulfonamid]
TT2.5 (Pferdethrombin): 0 Sekunden
TT25 (Pferdethrombin): 8 Sekunden
TT250 (Pferdethrombin): 30 Sekunden

SMILES: COc1cc(OCCNc2ccncc2)cc(S(=O)(=O)N(C)c2ccccc2)c1 [Beispiel 80, 3-Methoxy-N-methyl-N-phenyl-5-[2-(pyridin-4-ylamino)-ethoxy]-benzolsulfonamid]
TT2.5 (Pferdethrombin): 44 Sekunden
TT25 (Pferdethrombin): 213 Sekunden
TT250 (Pferdethrombin): 300 Sekunden
Ki (humanem α-Thrombin): 150 nM

SMILES: COc1cc(OCCNc2ccncc2)cc(N(C)S(=O)(=O)c2ccccc2)c1 [Beispiel 83, N-Methyl-N-{3-[2-(pyridin-4-ylamino)-ethoxy]-5-methoxy-phenyl}-benzolsulfonamid]
TT2.5 (Pferdethrombin): 48 Sekunden
TT25 (Pferdethrombin): 192 Sekunden
TT250 (Pferdethrombin): 300 Sekunden
Ki (humanem α-Thrombin): 100 nM

SMILES: O=S(=O)(c1cc(Cl)cc(NCCNc2ccncc2)c1)N(Cc1ccccc1)c1ccccc1 [Beispiel 86, 3-Chlor-N-benzyl-N-phenyl-5-[2-(pyridin-4-ylamino)-ethylamino]-benzolsulfonamid]
TT2.5 (Pferdethrombin): 11 Sekunden
TT25 (Pferdethrombin): 167 Sekunden
TT250 (Pferdethrombin): 300 Sekunden
Ki (humanem α-Thrombin): 40 nM

SMILES: O=S(=O)(Nc1cc(Br)cc(NCCNc2ccncc2)c1)c1ccccc1 [Beispiel 89, N-{3-[2-(Pyridin-4-ylamino)-ethylamino]-5-brom-phenyl}-benzolsulfonamid]
TT2.5 (Pferdethrombin): 6 Sekunden
TT25 (Pferdethrombin): 38 Sekunden
TT250 (Pferdethrombin): 132 Sekunden
Ki (humanem α-Thrombin): 1000 nM

SMILES: CCc1cc(OCCNc2ccncc2)cc(OS(=O)(=O)c2ccccc2)c1 [Beispiel 90, Benzolsulfonsäure-3-ethyl-5-[2-(pyridin-4-ylamino)-ethoxy]-phenyl-ester]
TT2.5 (Pferdethrombin): 125 Sekunden
TT25 (Pferdethrombin): 300 Sekunden
TT250 (Pferdethrombin): 300 Sekunden
Ki (humanem α-Thrombin): 24 nM

SMILES: Cc1cc(OCCNc2ccncc2)cc(N(CCN)S(=O)(=O)c2ccccc2)c1 [Beispiel 100, N-(2-Aminoethyl)-N-{3-[2-(pyridin-4-ylamino)-ethoxy]-5-methyl-phenyl}-benzolsulfonamid]
TT2.5 (Pferdethrombin): 186 Sekunden
TT25 (Pferdethrombin): 300 Sekunden
TT250 (Pferdethrombin): 300 Sekunden
Ki (humanem α-Thrombin): 83 nM

SMILES: Cc1cc(OCCNc2ccncc2)cc(N(CCCCCC(=O)O)S(=O)(=O)c2ccccc2)c1 [Beispiel 108, 6-(Benzolsulfonyl-{3-methyl-5-[2-(pyridin-4-yl-amino)-ethoxy]-phenyl}-amino)-hexansäure]
TT2.5 (Pferdethrombin): 62 Sekunden
TT25 (Pferdethrombin): 300 Sekunden
TT250 (Pferdethrombin): 300 Sekunden
Ki (humanem α-Thrombin): 55 nM

SMILES: Cc1cc(OCCNc2ccncc2)cc(N(C)S(=O)(=O)c2ccccc2OCC(=O)O)c1 [Beispiel 124]
TT2.5 (Pferdethrombin): 104 Sekunden
TT25 (Pferdethrombin): 300 Sekunden
TT250 (Pferdethrombin): 300 Sekunden
Ki (humanem α-Thrombin): 250 nM

SMILES: CCOC(=O)N(c1cc(C)cc(OCCNc2ccncc2)c1)S(=O)(=O)c1ccccc1OC [Beispiel 125, N-Ethoxycarbonyl-N-{3-methyl-5-[2-(pyridin-4-ylamino)-ethoxy]-phenyl}-2-methoxybenzolsulfonamid]
TT2.5 (Pferdethrombin): 73 Sekunden
TT25 (Pferdethrombin): 273 Sekunden
TT250 (Pferdethrombin): 300 Sekunden
Ki (humanem α-Thrombin): 150 nM
